What was measured:
CAL-51 [1] = test: normalised viability (% of control), CellTiter-Blue; higher = more viable cells (about 100 = DMSO control); conditions: 300 nM; incubation time: 72 h
How it was run: (§1)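 Normalised viability is given for a single listed concentration of the series. In 384-well plates, breast cancer cell lines were incubated 72 h with compound, then read with CellTiter-Blue (2 h, 37 °C) at 560/590 nm. Per-plate scaling set vehicle to 100 and a positive kill control to 0, with Z'-factor quality control.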

DU-4475 [2] = test: as above; conditions: 300 nM; incubation time: 72 h
How it was run: as §1

HDQ-P1 [3] = test: as above; conditions: 300 nM; incubation time: 72 h
How it was run: as §1

CAL-51 [4] = test: drug sensitivity score (DSS), CellTiter-Blue viability (DSS (AUC-based score)); higher = stronger viability inhibition; extreme values may be limits of the assay; conditions: incubation time: 72 h
Protocol: (§2)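 DSRT with the CellTiter-Blue (resazurin reduction) viability readout, fluorescence 560/590 nm, 72 h incubation. Plates were normalised to DMSO and benzethonium chloride controls. DSS is computed from the area under the fitted dose-response curve (5 or 9 concentrations).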

MDA-MB-453 [5] = test: as above; conditions: incubation time: 72 h
Protocol: as §2

BT-474 = test: drug sensitivity score (DSS), CellTox Green (DSS (AUC-based score)); higher = stronger drug effect (viability inhibition or cytotoxicity); extreme values may be limits of the assay; conditions: incubation time: 72 h
How it was run: (§3)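 The drug sensitivity score was computed from the area under the fitted dose-response curve. Breast cancer cell lines in 20 µl suspension went into 384-well plates holding compound at 5 concentrations (10-fold steps over a 10,000-fold, compound-specific range) for 72 h of incubation. CellTox Green fluorescence (485/520 nm) was read before CellTiter-Glo luminescence, the latter after 10 min at room temperature, and each plate was normalised to 0.1 % DMSO and a positive kill control.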

BT-549 = test: as above; conditions: incubation time: 72 h
How it was run: as §3

CAL-120 = test: as above; conditions: incubation time: 72 h
How it was run: as §3

CAL-148 = test: as above; conditions: incubation time: 72 h
How it was run: as §3

CAL-51 [6] = test: as above; conditions: incubation time: 72 h
How it was run: as §3

CAL-85-1 = test: as above; conditions: incubation time: 72 h
How it was run: as §3

DU-4475 [7] = test: as above; conditions: incubation time: 72 h
How it was run: as §3

HCC1143 = test: as above; conditions: incubation time: 72 h
How it was run: as §3

HCC1599 = test: as above; conditions: incubation time: 72 h
How it was run: as §3

HCC1937 = test: as above; conditions: incubation time: 72 h
How it was run: as §3

HDQ-P1 [8] = test: as above; conditions: incubation time: 72 h
How it was run: as §3

Hs578T = test: as above; conditions: incubation time: 72 h
How it was run: as §3

MCF-10A = test: as above; conditions: incubation time: 72 h
How it was run: as §3

MDA-MB-231 = test: as above; conditions: incubation time: 72 h
How it was run: as §3

MDA-MB-436 = test: as above; conditions: incubation time: 72 h
How it was run: as §3

MDA-MB-453 [9] = test: as above; conditions: incubation time: 72 h
How it was run: as §3

MDA-MB-468 = test: as above; conditions: incubation time: 72 h
How it was run: as §3

MFM-223 = test: as above; conditions: incubation time: 72 h
How it was run: as §3

N#Cc1ccc(C(c2ccc(C#N)cc2)n2cncn2)cc1 [Letrozole]
normalised viability (CAL-51 [1]): 104%
normalised viability (DU-4475 [2]): 81.2%
normalised viability (HDQ-P1 [3]): 69.4%
drug sensitivity score (CAL-51 [4]): 0
drug sensitivity score (MDA-MB-453 [5]): 0
drug sensitivity score (BT-474): 0
drug sensitivity score (BT-549): 0
drug sensitivity score (CAL-120): 0
drug sensitivity score (CAL-148): 0
drug sensitivity score (CAL-51 [6]): 0
drug sensitivity score (CAL-85-1): 0
drug sensitivity score (DU-4475 [7]): 0
drug sensitivity score (HCC1143): 0
drug sensitivity score (HCC1599): 0
drug sensitivity score (HCC1937): 0
drug sensitivity score (HDQ-P1 [8]): 0
drug sensitivity score (Hs578T): 0.858
drug sensitivity score (MCF-10A): 0
drug sensitivity score (MDA-MB-231): 0
drug sensitivity score (MDA-MB-436): 0
drug sensitivity score (MDA-MB-453 [9]): 0
drug sensitivity score (MDA-MB-468): 4.02
drug sensitivity score (MFM-223): 0

C[C@H]1C[C@@H]2[C@H]([C@@H](O)C[C@@]3(C)[C@H]2CC[C@]3(O)C(=O)CO)[C@@]2(C)C=CC(=O)C=C12 [Methylprednisolone]
normalised viability (CAL-51 [1]): 105%
normalised viability (DU-4475 [2]): 100%
normalised viability (HDQ-P1 [3]): 74.6%
drug sensitivity score (CAL-51 [4]): 0
drug sensitivity score (MDA-MB-453 [5]): 6.93
drug sensitivity score (BT-474): 0
drug sensitivity score (BT-549): 0
drug sensitivity score (CAL-120): 0
drug sensitivity score (CAL-148): 0
drug sensitivity score (CAL-51 [6]): 0
drug sensitivity score (CAL-85-1): 0
drug sensitivity score (DU-4475 [7]): 0
drug sensitivity score (HCC1143): 0
drug sensitivity score (HCC1599): 0
drug sensitivity score (HCC1937): 0
drug sensitivity score (HDQ-P1 [8]): 0
drug sensitivity score (Hs578T): 0
drug sensitivity score (MCF-10A): 0
drug sensitivity score (MDA-MB-231): 0
drug sensitivity score (MDA-MB-436): 0
drug sensitivity score (MDA-MB-453 [9]): 0
drug sensitivity score (MDA-MB-468): 0
drug sensitivity score (MFM-223): 0

O=C(O)C(=O)O.[NH-][C@@H]1CCCC[C@H]1[NH-].[Pt+2] [Oxaliplatin]
normalised viability (CAL-51 [1]): 95.5%
normalised viability (DU-4475 [2]): 113%
normalised viability (HDQ-P1 [3]): 78.4%
drug sensitivity score (CAL-51 [4]): 1.13
drug sensitivity score (MDA-MB-453 [5]): 1.94
drug sensitivity score (BT-474): 0
drug sensitivity score (BT-549): 0
drug sensitivity score (CAL-120): 0
drug sensitivity score (CAL-51 [6]): 0
drug sensitivity score (CAL-85-1): 0
drug sensitivity score (DU-4475 [7]): 0
drug sensitivity score (HCC1143): 0
drug sensitivity score (HCC1599): 0
drug sensitivity score (HCC1937): 0
drug sensitivity score (HDQ-P1 [8]): 1
drug sensitivity score (Hs578T): 0
drug sensitivity score (MCF-10A): 1.93
drug sensitivity score (MDA-MB-231): 0
drug sensitivity score (MDA-MB-436): 0
drug sensitivity score (MDA-MB-453 [9]): 0
drug sensitivity score (MDA-MB-468): 0
drug sensitivity score (MFM-223): 0

Nc1nc2[nH]cc(CCc3ccc(C(=O)N[C@@H](CCC(=O)O)C(=O)O)cc3)c2c(=O)[nH]1 [Pemetrexed]
normalised viability (CAL-51 [1]): 110%
normalised viability (DU-4475 [2]): 93.6%
normalised viability (HDQ-P1 [3]): 83.7%
drug sensitivity score (CAL-51 [4]): 0
drug sensitivity score (MDA-MB-453 [5]): 0
drug sensitivity score (BT-474): 0
drug sensitivity score (BT-549): 0
drug sensitivity score (CAL-120): 0
drug sensitivity score (CAL-148): 0
drug sensitivity score (CAL-51 [6]): 0
drug sensitivity score (CAL-85-1): 0
drug sensitivity score (DU-4475 [7]): 0
drug sensitivity score (HCC1143): 0
drug sensitivity score (HCC1599): 0
drug sensitivity score (HCC1937): 0
drug sensitivity score (HDQ-P1 [8]): 0
drug sensitivity score (Hs578T): 0.581
drug sensitivity score (MCF-10A): 0.385
drug sensitivity score (MDA-MB-231): 2.43
drug sensitivity score (MDA-MB-436): 0
drug sensitivity score (MDA-MB-453 [9]): 0
drug sensitivity score (MDA-MB-468): 1.29
drug sensitivity score (MFM-223): 0

COc1cc([C@@H]2c3cc4c(cc3[C@@H](O[C@@H]3O[C@@H]5CO[C@@H](c6cccs6)O[C@H]5[C@H](O)[C@H]3O)[C@H]3COC(=O)[C@H]23)OCO4)cc(OC)c1O [Teniposide]
normalised viability (CAL-51 [1]): 28.1%
normalised viability (DU-4475 [2]): 10.4%
normalised viability (HDQ-P1 [3]): 86.3%
drug sensitivity score (CAL-51 [4]): 22.2
drug sensitivity score (MDA-MB-453 [5]): 6.23
drug sensitivity score (BT-474): 0
drug sensitivity score (BT-549): 0
drug sensitivity score (CAL-120): 4.54
drug sensitivity score (CAL-148): 25.1
drug sensitivity score (CAL-51 [6]): 11.8
drug sensitivity score (CAL-85-1): 7.07
drug sensitivity score (DU-4475 [7]): 4.49
drug sensitivity score (HCC1143): 0
drug sensitivity score (HCC1599): 3.84
drug sensitivity score (HCC1937): 8.06
drug sensitivity score (HDQ-P1 [8]): 7.08
drug sensitivity score (Hs578T): 2.53
drug sensitivity score (MDA-MB-231): 10.8
drug sensitivity score (MDA-MB-436): 0
drug sensitivity score (MDA-MB-453 [9]): 0
drug sensitivity score (MDA-MB-468): 6.45
drug sensitivity score (MFM-223): 6.4

COc1cc2nccc(Oc3ccc(NC(=O)Nc4cc(C)on4)c(Cl)c3)c2cc1OC [Tivozanib]
normalised viability (CAL-51 [1]): 89.8%
normalised viability (DU-4475 [2]): 109%
normalised viability (HDQ-P1 [3]): 61.2%
drug sensitivity score (CAL-51 [4]): 2.51
drug sensitivity score (MDA-MB-453 [5]): 5.3
drug sensitivity score (BT-474): 0
drug sensitivity score (BT-549): 0
drug sensitivity score (CAL-120): 0
drug sensitivity score (CAL-148): 0
drug sensitivity score (CAL-85-1): 0
drug sensitivity score (DU-4475 [7]): 0
drug sensitivity score (HCC1143): 0
drug sensitivity score (HCC1599): 0
drug sensitivity score (HCC1937): 0
drug sensitivity score (HDQ-P1 [8]): 0
drug sensitivity score (Hs578T): 3.86
drug sensitivity score (MCF-10A): 0
drug sensitivity score (MDA-MB-231): 0
drug sensitivity score (MDA-MB-436): 0
drug sensitivity score (MDA-MB-453 [9]): 0
drug sensitivity score (MDA-MB-468): 0
drug sensitivity score (MFM-223): 0

CC1=C(/C=C/C(C)=C/C=C/C(C)=C/C(=O)O)C(C)(C)CCC1 [Tretinoin]
normalised viability (CAL-51 [1]): 96.2%
normalised viability (DU-4475 [2]): 91.1%
normalised viability (HDQ-P1 [3]): 94.9%
drug sensitivity score (CAL-51 [4]): 0
drug sensitivity score (MDA-MB-453 [5]): 0
drug sensitivity score (BT-474): 0.87
drug sensitivity score (BT-549): 0
drug sensitivity score (CAL-120): 0
drug sensitivity score (CAL-148): 0
drug sensitivity score (CAL-51 [6]): 0
drug sensitivity score (CAL-85-1): 1.14
drug sensitivity score (DU-4475 [7]): 0
drug sensitivity score (HCC1143): 0
drug sensitivity score (HCC1599): 0
drug sensitivity score (HCC1937): 0
drug sensitivity score (HDQ-P1 [8]): 0
drug sensitivity score (Hs578T): 7.23
drug sensitivity score (MCF-10A): 1.81
drug sensitivity score (MDA-MB-231): 3.64
drug sensitivity score (MDA-MB-436): 0
drug sensitivity score (MDA-MB-453 [9]): 0
drug sensitivity score (MDA-MB-468): 0
drug sensitivity score (MFM-223): 0

Source: the supplement of paper PMC4862054
